Results: patent US12583848B2, “Isoxazole-3-carboxamide derivatives and their use for treatment of diseases caused by virus infection” (Collaborations Pharmaceuticals, Inc., priority 2019, dated 2026)

What was measured:
[1] = system: CVB3 97927-I1207M (pleconaril-resistant variant); format: cell-based, coxsackievirus B3
[2] = system: CVB3 97927-I1207T (pleconaril-resistant variant); format: cell-based, coxsackievirus B3
rhinovirus A2 (RV-A2) = assay: organism not typed; format: cell-based; details: HeLa, 72 h, read-out: IC50 against Rhinoviruses (RV) RV-A2
HeLa cells = details: human
rhinovirus B14 (RV-B14) = assay: organism not typed; format: cell-based; details: HeLa, 72 h, read-out: IC50 against Rhinoviruses (RV) RV-B14
[3] = system: CVB3 97927-I1207K (pleconaril-resistant variant); format: cell-based, coxsackievirus B3
poliomyelitis virus = details: cited from earlier work
poliovirus = details: mouse, in vivo; cited from earlier work
rhinovirus B5 (RV-B5) = assay: organism not typed; format: cell-based; details: HeLa cells, CPE inhibition, 72 hours; n.a. = not active; read-out: IC50 against Rhinoviruses (RV) RV-B5
[4] = system: Enterovirus D68 (EV-D68 MP30 PP); format: in vivo, AG129 mice; details: guanidine 100 mg/kg/d IP, days 1 and 3 post-infection
[5] = system: clinical isolates of enterovirus serotypes; details: most of 215 clinical isolates of enterovirus serotypes; cited from earlier work
[6] = system: coxsackievirus B3 I1207K and I1207R; details: in vitro; cited from earlier work
in vitro = details: human, HeLa cells
PXR = PXR (Homo sapiens, UniProt O75469); assay: biochemical
PXR, sequence (O75469 111-434 limits assumed): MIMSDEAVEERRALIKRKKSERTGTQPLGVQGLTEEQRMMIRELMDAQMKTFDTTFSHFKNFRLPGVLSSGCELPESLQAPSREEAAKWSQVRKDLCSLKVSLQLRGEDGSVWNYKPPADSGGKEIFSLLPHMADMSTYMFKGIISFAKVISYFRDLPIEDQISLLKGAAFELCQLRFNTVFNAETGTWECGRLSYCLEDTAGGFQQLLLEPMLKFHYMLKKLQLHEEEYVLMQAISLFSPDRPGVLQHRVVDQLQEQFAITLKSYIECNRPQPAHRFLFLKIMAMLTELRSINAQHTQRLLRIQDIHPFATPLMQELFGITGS

`CNC(=O)c1cc(CCCOc2ccc(-c3noc(C(F)(F)F)n3)cc2C(F)(F)F)on1` [Compound 13, N-methyl-5-(3-{2-(trifluoromethyl)-4-[5-(trifluoromethyl)-1,2,4-oxadiazol-3-yl]phenoxy}propyl)isoxazole-3-carboxamide] showed an IC50 [1] of 60 nM, an IC50 [2] of 1040 nM and an IC50 (rhinovirus A2 (RV-A2)) of 960 nM. The CC50 (HeLa cells) was over 100000 nM.

Molecule `Cc1cc(-c2noc(C(F)(F)F)n2)cc(C)c1OCCCc1cc(C(N)=O)no1` [Compound 3, 5-(3-{2,6-dimethyl-4-[5-(trifluoromethyl)-1,2,4-oxadiazol-3-yl]phenoxy}propyl)isoxazole-3-carboxamide] has an IC50 [1] of 1690 nM, an IC50 (rhinovirus A2 (RV-A2)) of 500 nM and an IC50 (rhinovirus B14 (RV-B14)) of 220 nM. For the same molecule, the CC50 (HeLa cells) was over 100000 nM.

`Cc1cc(-c2noc(C(F)(F)F)n2)cc(C)c1OCCCc1cc(C(=O)N(C)C)no1` [Compound 4, 5-(3-{2,6-dimethyl-4-[5-(trifluoromethyl)-1,2,4-oxadiazol-3-yl]phenoxy}propyl)-N,N-dimethylisoxazole-3-carboxamide] showed an IC50 [3] of 8520 nM, an IC50 [1] of under 30 nM and an IC50 [2] of 1010 nM. For the same molecule, the IC50 (rhinovirus A2 (RV-A2)) was 120 nM, the IC50 (rhinovirus B14 (RV-B14)) was 120 nM and the CC50 (HeLa cells) was 13200 nM. The Mutagenicity (Escherichia coli PQ37) was “NO”.

In the case of `CCC(=O)C(CCCCCCOc1ccc(OC)cc1Cl)C(=O)CC` [Arildone], the “replication of poliomyelitis virus in vitro” value (poliomyelitis virus) is given as “specifically inhibits replication of poliomyelitis virus in vitro” and the “poliovirus-induced paralysis and death” value (poliovirus) is given as “prevents poliovirus-induced paralysis and death in mice”.

In the case of `Cc1cc(-c2noc(C(F)(F)F)n2)cc(C)c1OCCCc1cc(C(=O)NCc2ccccc2)no1` [Compound 1, N-benzyl-5-(3-{2,6-dimethyl-4-[5-(trifluoromethyl)-1,2,4-oxadiazol-3-yl]phenoxy}propyl)isoxazole-3-carboxamide], the IC50 [1] is reported as 13100 nM, the IC50 (rhinovirus A2 (RV-A2)) is reported as 230 nM and the IC50 (rhinovirus B14 (RV-B14)) is reported as 250 nM. It also gave a CC50 (HeLa cells) of over 100000 nM.

With `CN(C)C(=O)c1cc(CCCOc2ccc(-c3noc(C(F)(F)F)n3)cc2)on1` [Compound 11, N,N-dimethyl-5-(3-{4-[5-(trifluoromethyl)-1,2,4-oxadiazol-3-yl]phenoxy}propyl)isoxazole-3-carboxamide] the IC50 [3] was 27500 nM, the IC50 [1] was 20 nM and the IC50 [2] was 8110 nM. For the same molecule, the IC50 (rhinovirus A2 (RV-A2)) was 4610 nM, the IC50 (rhinovirus B5 (RV-B5)) was 1740 nM and the IC50 (rhinovirus B14 (RV-B14)) was 40 nM. For the same molecule, the CC50 (HeLa cells) was 28000 nM.

`CNC(=O)c1cc(CCCOc2c(C)cc(-c3noc(C(F)(F)F)n3)cc2C)on1` [Compound 2, 5-(3-{2,6-dimethyl-4-[5-(trifluoromethyl)-1,2,4-oxadiazol-3-yl]phenoxy}propyl)-N-methylisoxazole-3-carboxamide] showed an IC50 [1] of 370 nM, an IC50 (rhinovirus A2 (RV-A2)) of 210 nM and an IC50 (rhinovirus B14 (RV-B14)) of 20 nM. The CC50 (HeLa cells) was over 100000 nM and the Mutagenicity (Escherichia coli PQ37) was “NO”.

`COc1cc(-c2noc(C(F)(F)F)n2)cc([N+](=O)[O-])c1OCCCc1cc(C(=O)N(C)C)no1` [Compound 10, 5-(3-{2-methoxy-6-nitro-4-[5-(trifluoromethyl)-1,2,4-oxadiazol-3-yl]phenoxy}propyl)-N,N-dimethylisoxazole-3-carboxamide] showed an IC50 [1] of 880 nM, an IC50 [2] of 840 nM and an IC50 (rhinovirus A2 (RV-A2)) of 320 nM. It also gave an IC50 (rhinovirus B14 (RV-B14)) of 200 nM and a CC50 (HeLa cells) of 25600 nM.

Molecule “Guanidine HCl [Gua- HCl, reference compound]” has an IC50 [3] of 705000 nM, an IC50 [1] of 725000 nM and an IC50 [2] of 807000 nM. For the same molecule, the “lung virus titers compared to placebo” value [4] was “reduction in virus titers”.

For `CN(C)C(=O)c1cc(CCCOc2ccc(-c3noc(C(F)(F)F)n3)cc2F)on1` [Compound 9, 5-(3-{2-fluoro-4-[5-(trifluoromethyl)-1,2,4-oxadiazol-3-yl]phenoxy}propyl)-N,N-dimethylisoxazole-3-carboxamide], the IC50 [1] was 50 nM, the IC50 [2] was 1430 nM and the IC50 (rhinovirus A2 (RV-A2)) was 3770 nM. For the same molecule, the IC50 (rhinovirus B5 (RV-B5)) was 4040 nM, the IC50 (rhinovirus B14 (RV-B14)) was 50 nM and the CC50 (HeLa cells) was 20200 nM.

Molecule `CN(C)C(=O)c1cc(CCCOc2ccc(-c3noc(C(F)(F)F)n3)cc2[N+](=O)[O-])on1` [Compound 7, N,N-dimethyl-5-(3-{2-nitro-4-[5-(trifluoromethyl)-1,2,4-oxadiazol-3-yl]phenoxy}propyl)isoxazole-3-carboxamide] has an IC50 [3] of 6460 nM, an IC50 [1] of 1 nM and an IC50 [2] of 30 nM. It also gave an IC50 (rhinovirus A2 (RV-A2)) of 670 nM, an IC50 (rhinovirus B5 (RV-B5)) of 7630 nM and an IC50 (rhinovirus B14 (RV-B14)) of 280 nM. The CC50 (HeLa cells) was 22500 nM and the Mutagenicity (Escherichia coli PQ37) was “NO”.

`Cc1cc(CCCOc2c(C)cc(-c3noc(C(F)(F)F)n3)cc2C)on1` [Pleconaril, reference compound] showed an IC50 [1] of 4500 nM, an IC50 [2] of 9410 nM and an IC50 (rhinovirus B14 (RV-B14)) of 60 nM. For the same molecule, the IC50 [5] was at most 30 nM, the “antiviral activity against coxsackievirus B3 with I1207K or I1207R in VP1” value [6] was “completely abolish the antiviral activity” and the CC50 (in vitro) was 45200 nM. The IC50 (PXR) was over 100000 nM.

With `COc1cc(-c2noc(C(F)(F)F)n2)ccc1OCCCc1cc(C(=O)N(C)C)no1` [Compound 6, 5-(3-{2-methoxy-4-[5-(trifluoromethyl)-1,2,4-oxadiazol-3-yl]phenoxy}propyl)-N,N-dimethylisoxazole-3-carboxamide] the IC50 [3] was 51700 nM, the IC50 [1] was 600 nM and the IC50 [2] was 1660 nM. It also gave an IC50 (rhinovirus A2 (RV-A2)) of 1970 nM, an IC50 (rhinovirus B5 (RV-B5)) of 3280 nM and an IC50 (rhinovirus B14 (RV-B14)) of 40 nM. It also gave a CC50 (HeLa cells) of 68000 nM.

Work on `CN(C)C(=O)c1cc(CCCOc2ccc(-c3noc(C(F)(F)F)n3)cc2C(F)(F)F)on1` [Compound 12, N,N-dimethyl-5-(3-{2-(trifluoromethyl)-4-[5-(trifluoromethyl)-1,2,4-oxadiazol-3-yl]phenoxy}propyl)isoxazole-3-carboxamide] yielded an IC50 [3] of 7180 nM, an IC50 [1] of 160 nM and an IC50 [2] of 530 nM. The IC50 (rhinovirus A2 (RV-A2)) was 320 nM, the IC50 (rhinovirus B14 (RV-B14)) was 6760 nM and the CC50 (HeLa cells) was 19200 nM. The Mutagenicity (Escherichia coli PQ37) was “NO”.
